One experiment deals with Hela cells. The experiment can be described thus: Autophagy-inducing activities in Hela cells (Autophagy Detection Kit). The class given is cell-based. On the procedure:
The autophagy-inducing activities of the compounds of the present invention were measured in Hela cells (Korean Cell Line Bank), using the Autophagy Detection Kit (ab139484, Abcam), according to the manufacturer's instructions. Specifically, 100 μL of EBSS (Earle's Balanced Salt Solution, WELGENE (LB 002-03)) containing 10% fetal bovine serum (FBS) was added to each well of a 96-well plate. Hela cells (1×10^4 cells) were added to each well and then incubated overnight at 37° C. in a CO2 incubator so as to stabilize the cells. The medium of each well containing the stabilized cells was replaced with a medium obtained by adding 10 nM or 100 nM of the compounds prepared in Examples (test compounds) to a EBSS containing 10% FBS. As a positive control, rapamycin was dissolved in dimethyl sulfoxide and then treated at a concentration of 500 nM per well. After the treatments, the cells were incubated at 37° C. in a CO2 incubator for 4 hours or 24 hours and then washed twice with the 1× assay buffer (prepared by adding 9 mL of distilled water to the 10× assay buffer). EBSS containing 5% fetal bovine serum, 1 μL/ml of Green detection reagent and 1 μL/ml of Nuclear stain was added thereto in the amount of 100 μL per well. The cells were incubated for 1 hour at 37° C. in a CO2 incubator and then washed twice with the 1× assay buffer. The absorbance values were measured at 488 nm, using a microplate reader (Cytation 3). The tests were repeated four times.
The absorbance values, which were obtained by treating Hela cells with the test compounds (100 nM) and the positive control (rapamycin, 500 nM) and then incubating for 4 hours as described in above, are shown in Table 1 below. And also, the absorbance values, which were obtained by treating Hela cells with the test compounds (10 nM or 100 nM) and the positive control (rapamycin, 500 nM) and then incubating for 24 hours as described in above, are shown in Table 2 below.

Experiment [1] has as its system dimethylnitrosamine (DMN)-induced liver injury male SD rats. The experiment can be described thus: Liver function-improving activities by oral administration in the liver injury model (1), 3 weeks. Type of experiment: in vivo, rat. As to conditions: serum, 25 mg/kg oral once a day. An excerpt: The compounds according to the present invention were orally administered to dimethylnitrosamine (DMN)-induced liver injury male SD rats for 3 weeks, so as to evaluate liver function-improving activities. Specifically, 7-week-old male SD rats (Orient Bio, Korea) were accommodated to the laboratory environment at room temperature for 7 days. General symptoms were observed and then only healthy animals were used for the experiment. The rats were divided into 9 groups (n=5 for each group), the normal control group, the group to which only DMN is administered, and the groups to which both the compound of the present invention (the compounds of Example 2, 5, 6, 9, 10, 20 or 21) and DMN are administered. DMN was dissolved in purified water and then administered intraperitoneally at the dose of 10 mg/kg for 3 consecutive weeks (3 times per week, for 4 weeks). Blood samples were collected on Day 3 after the completion of the first-week liver injury inducement and then the ALT (Alanine Transaminase) values and the AST (Aspartate Transaminase) values were measured so as to confirm the liver injury thereof. The compounds of the present invention were administered for 3 weeks, i.e., from Day 4 after the completion of the first-week liver injury inducement to the DMN-administering period. The seven compounds of the present invention were dissolved in purified water or corn oil and then orally administered, using an oral sonde, at the dose of 25 mg/kg once a day for 3 weeks. Blood samples were collected on Day 0 (3 days after the completion of the first-week liver injury inducement) and Day 7, 14 and 21 after the administration of the test compounds. The collected blood was injected into a vacutainer tube containing a clot activator and then allowed to stand at room temperature for about 20 minutes so as to coagulate each blood sample. After centrifugation for 10 minutes, the resulting serums were subjected to blood-biochemical tests.

The mark [2] stands for this setting: test compound 10 nM, incubation for 24 hours.
Where [3] appears, read: test compound 100 nM, incubation for 4 hours.
[4] abbreviates: test compound 100 nM, incubation for 24 hours.
The mark [5] stands for this setting: 0 week (Day 0, before administration of test compound).

Structures can show the parent of a compound that is named as a salt.

With `CO[C@H]1C[C@@H]2CC[C@@H](C)[C@@](O)(O2)C(=O)C(=O)N2CCCC[C@H]2C(=O)O[C@H]([C@H](C)C[C@@H]2CC[C@@H](O)[C@H](OC)C2)CC(=O)[C@H](C)/C=C(\C)[C@@H](O)[C@@H](OC)C(=O)[C@H](C)C[C@H](C)/C=C/C=C/C=C/1C` [Rapamycin, rapamycin, reference compound], the “Absorbance (at 488 nm)” value worked out at 1306.2 in the experiment with Hela cells (positive control 500 nM, incubation for 4 hours) and 1594.2 in the experiment on Hela cells (positive control 500 nM, incubation for 24 hours).

For `CCN(CC)CCOc1ccc(-c2ccc(C(=O)NC(C)C)s2)cc1OC.Cl` [Example 9, N-isopropyl-5-(4-(2-diethylamino)ethoxy-3-methoxyphenyl)thiophene-2-carboxamide hydrochloride], the results for the “Absorbance (at 488 nm)” value in the experiment with Hela cells (setting [2]), in the experiment with Hela cells (setting [3]) and with Hela cells (setting [4]) were 1594.0, 1320.2 and 1951.7, respectively. In addition, the “ALT values (average value)” value in experiment [1] (setting [5]) is recorded as 67.64 U/L; in experiment [1] (1 week), 103.78 U/L; in experiment [1] (2 weeks), 111.80 U/L; in experiment [1] (3 weeks) it was 117.92 U/L. For the same molecule, the “AST values (average value)” value in experiment [1] (setting [5]) worked out at 140.64 U/L; in experiment [1] (1 week) it was 220.58 U/L; in experiment [1] (2 weeks), 241.06 U/L; in experiment [1] (3 weeks) it was 222.50 U/L.

As to `COc1cc(-c2ccc(C(=S)NCCN(C(C)C)C(C)C)s2)ccc1O.Cl` [Example 7, N-(2-(diisopropylamino)ethyl)-5-(4-hydroxy-3-methoxyphenyl)thiophene-2-thiocarboxamide hydrochloride], the “Absorbance (at 488 nm)” value in the experiment with Hela cells (setting [2]) turned out to be 1598.5; in the experiment on Hela cells (setting [3]), 1325.5; with Hela cells (setting [4]), 1605.5.

As for `COc1cc(-c2ccc(C(=O)N3CCN(C)CC3)s2)ccc1O` [Example 1, hydrochloride], the “Absorbance (at 488 nm)” value in the experiment on Hela cells (setting [2]) stood at 1617.3; with Hela cells (setting [3]) it was 1321.2; in the experiment with Hela cells (setting [4]), 1660.3.

Turning to `COc1cc(-c2ccc(C(=S)N3CCN(C)CC3)s2)ccc1O` [Example 3, N-(4-methylpiperazino)-5-(4-hydroxy-3-methoxyphenyl)thiophene-2-thiocarboxamide hydrochloride], the “Absorbance (at 488 nm)” value is 1576.3 in the experiment on Hela cells (setting [2]), 1193.8 in the experiment on Hela cells (setting [3]) and 1754.3 in the experiment on Hela cells (setting [4]).

Take `COc1cc(-c2ccc(C(=O)NCC3(N(C)C)CCOCC3)s2)ccc1O.Cl` [Example 20, N-((4-(dimethylamino)tetrahydro-2H-pyran-4-yl)methyl)-5-(4-hydroxy-3-methoxyphenyl)thiophene-2-carboxamide hydrochloride]: the “ALT values (average value)” value in experiment [1] (setting [5]) is recorded as 69.80 U/L; in experiment [1] (1 week) it was 87.26 U/L; in experiment [1] (2 weeks), 104.34 U/L; in experiment [1] (3 weeks) it was 116.14 U/L. In addition, the “AST values (average value)” value in experiment [1] (setting [5]) stood at 136.28 U/L; in experiment [1] (1 week), 194.88 U/L; in experiment [1] (2 weeks), 209.56 U/L; in experiment [1] (3 weeks), 229.74 U/L.

With `CCN(CC)CCOc1ccc(-c2ccc(C(=S)NCCN(C(C)C)C(C)C)s2)cc1OC.Cl.Cl` [Example 8, N-(2-(diisopropylamino)ethyl)-5-(4-(2-diethylamino)ethoxy-3-methoxyphenyl)thiophene-2-thiocarboxamide hydrochloride], the “Absorbance (at 488 nm)” value was determined as 1586.3 in the experiment with Hela cells (setting [2]), 1315.2 in the experiment on Hela cells (setting [3]) and 1612.3 with Hela cells (setting [4]).

On to `CCN(CC)CCOc1ccc(-c2ccc(C(=O)N3CCN(C)CC3)s2)cc1OC.Cl.Cl` [Example 2, N-(4-methylpiperazino)-5-(4-(2-diethylamino)ethoxy-3-methoxyphenyl)thiophene-2-carboxamide hydrochloride], for which the “Absorbance (at 488 nm)” value in the experiment on Hela cells (setting [2]) is 1829.3; in the experiment on Hela cells (setting [3]), 1460.5; in the experiment on Hela cells (setting [4]) it was 1866.3. Besides, the “ALT values (average value)” value in experiment [1] (setting [5]) is on record as 67.24 U/L; in experiment [1] (1 week), 101.70 U/L; in experiment [1] (2 weeks), 113.22 U/L; in experiment [1] (3 weeks), 126.10 U/L. Further, the “AST values (average value)” value is 143.32 U/L in experiment [1] (setting [5]), 210.86 U/L in experiment [1] (1 week), 223.88 U/L in experiment [1] (2 weeks) and 250.76 U/L in experiment [1] (3 weeks).

On to `COc1cc(-c2ccc(C(=O)NCCN(C(C)C)C(C)C)s2)ccc1O.Cl` [Example 5, N-(2-(diisopropylamino)ethyl)-5-(4-hydroxy-3-methoxyphenyl)thiophene-2-carboxamide hydrochloride], for which the “Absorbance (at 488 nm)” value was 1557.3 in the experiment with Hela cells (setting [2]), 1348.0 with Hela cells (setting [3]) and 1618.3 in the experiment with Hela cells (setting [4]). For the same molecule, the “ALT values (average value)” value in experiment [1] (setting [5]) came to 68.90 U/L; in experiment [1] (1 week), 96.60 U/L; in experiment [1] (2 weeks), 108.80 U/L; in experiment [1] (3 weeks), 111.00 U/L. The “AST values (average value)” value in experiment [1] (setting [5]) stood at 137.66 U/L; in experiment [1] (1 week), 187.26 U/L; in experiment [1] (2 weeks) it was 219.66 U/L; in experiment [1] (3 weeks), 234.22 U/L.

Consider `CCN(CC)CCOc1ccc(-c2ccc(C(=S)N3CCN(C)CC3)s2)cc1OC.Cl.Cl` [Example 4, N-(4-methylpiperazino)-5-(4-(2-diethylamino)ethoxy-3-methoxyphenyl)thiophene-2-thiocarboxamide hydrochloride], for which the “Absorbance (at 488 nm)” value in the experiment on Hela cells (setting [2]) came out at 1691.3; in the experiment with Hela cells (setting [3]), 1580.6; in the experiment on Hela cells (setting [4]) it was 1618.3.

For the molecule `COc1cc(-c2ccc(C(=S)NC(C)C)s2)ccc1O` [Example 11, N-isopropyl-5-(4-hydroxy-3-methoxyphenyl)thiophene-2-thiocarboxamide], the “Absorbance (at 488 nm)” value amounted to 1459.7 in the experiment with Hela cells (setting [2]), 1268.4 in the experiment on Hela cells (setting [3]) and 1731.0 in the experiment on Hela cells (setting [4]).

Regarding `CCN(CC)CCOc1ccc(-c2ccc(C(=S)NC(C)C)s2)cc1OC.Cl` [Example 10, N-isopropyl-5-(4-(2-diethylamino)ethoxy-3-methoxyphenyl)thiophene-2-thiocarboxamide hydrochloride], the “Absorbance (at 488 nm)” value was 1729.3 in the experiment on Hela cells (setting [2]), 1390.0 with Hela cells (setting [3]) and 1882.3 in the experiment with Hela cells (setting [4]). The “ALT values (average value)” value is 67.46 U/L in experiment [1] (setting [5]), 85.06 U/L in experiment [1] (1 week), 102.94 U/L in experiment [1] (2 weeks) and 102.94 U/L in experiment [1] (3 weeks). The “AST values (average value)” value stood at 145.00 U/L in experiment [1] (setting [5]), 202.52 U/L in experiment [1] (1 week), 218.60 U/L in experiment [1] (2 weeks) and 199.34 U/L in experiment [1] (3 weeks).

These data come from US12110281B2, “Catechol derivatives or salt thereof, processes for preparing the same, and pharmaceutical compositions comprising the same” (HEXAPHARMATEC CO., LTD., priority 2018, dated 2024).
